Source: patent US5849259A, “3-,8-substituted deuteroporphyrin derivatives, pharmaceutical agents containing the latter and process for their production” (priority 1992, dated 1998)

How the values were obtained:
[1] = Tissue concentrations by ICP-AES after 0.1 mmol/kg i.v. in nude mice with subcutaneously implanted colon cancers (HT29, WiDr); assay type: in vivo, nude mice (Balb/c nu/nu)
Method: (§1) a) 9 nude mice (Balb/c nu/nu) with subcutaneously implanted colon cancers (HT29, WiDr) were each administered by i.v. 0.1 mmol/kg of the mesoporphyrin derivative of example 1b (10 mmol/l dissolved in bidistilled water, pH 7.2, 37° C.). After 0.5, 3 and 24 hours the animals were killed and dissected. The tissue concentrations were determined after corresponding working-up (HNO3 conc.) by ICP-AES and calculated for % of the administered dose per gram of tissue net weight.
e) 9 nude mice (Balb/c nu/nu) with subcutaneously implanted colon cancers (HT29 and WiDr) were each administered by i.v. 0.1 mmol/kg of the deuteroporphyrin derivative of the compound according to example 1c (10 mmol/l dissolved in bidistilled water, pH 7.2, 37° C.). After 0.5, 3 and 24 hours, the animals were killed and dissected. The tissue concentrations were determined after corresponding working-up (HNO3 conc.) by ICP-AES and calculated for % of the administered dose per gram of tissue net weight. Moreover, tissue relaxation times T1 and T2 were determined (Bruker minispec pc 120).
as §1, with “9” for “a) 9”, “8e” for “1b”, “hours,” for “hours”
as §1, with “9” for “a) 9”, “0.1.” for “0.1”, “16f” for “1b”, “0.5 and” for “0.5,”, “3” for “3 and 24”
as §1, with “9” for “a) 9”, “18d” for “1b”, “0.5 and” for “0.5,”, “hours,” for “and 24 hours”
as §1, with “9” for “a) 9”, “19e” for “1b”, “hours,” for “hours”

HT29 colon cancer = assay: Signal intensity change in tissues of tumor-bearing (HT29 colon cancer) nude mice, Bruker Biospec 2.35 Tesla, MSSE; assay type: in vivo, nude mice (Balb/c nu/nu); conditions: 0.05 mmol/kg i.v.; for enhancement, HT29 / enhancement, Kidneys / enhancement, Liver / enhancement, Muscle: time 0 = 100
Method: On a Bruker Biospec nuclear spin tomograph (2.35 Tesla), the al intensity change in various tissues of tumor-bearing (HT29 colon cancer) nude mice (Balb/c nu/nu) was studied after i.v administration of 0.05 mmol/kg of the compound according to example 1c (10 mmol/l, pH 7.2; 37° C. in bidistilled water). The measurement takes place with a multi slice single echo sequence (MSSE). Imaging parameters: TR: 400 ms, TE: 30 ms, layer thickness: 4 mm, number of averages: 4/slice, matrix 256^2. […]

VX-2 carcinoma = assay: Signal intensity in tissues of tumor-bearing rabbit (VX-2 carcinoma), Siemens Magneton 1.5 Tesla; assay type: in vivo
From the text: On a Siemens Magneton^(R) (1.5 Tesla; 64 MHz), the signal intensity in various tissues of a tumor-bearing rabbit [hare rabbit, Wulf, female, approximately 4 kg body weight (n=3), tumor of VX-2 carcinoma implanted intramuscularly about 3 weeks before the beginning of the test) was studied after the i.v. administration of […] body weight (corresponding to 0.05 mmol/kg of gadolinium) of the compound according to the invention produced according to Example 1c. The measurement took place with the following imaging parameters: T1 -weighted spin echo sequence: TR : 350 ms, TE : 15 ms, layer orientation: coronary, layer thickness 3 mm, number of averages: 4 per layer, field of view: 150 mm, matrix 256^2, 4-6 layers 1 echo per imaging sequence.
The relative signal intensities in various tissues are represented in FIG. 4. The output signal intensity (=SIprecontrast) in the various tissues was set equal to 1 in each case.

[2] = 0.0025 mmol/kg i.v. (corresponding to 0.05 mmol/kg of gadolinium)

Substance: N,N'-Bis[9-carboxylato-2,5,8-tris(carboxylatomethyl)-2,5,8-triazanonyl-carbamoyl]-mesoporphyrin-IX-13,17-diamide, digadolinium complex, disodium salt [Example 1c]
- tissue concentration, kidneys ([1]; 0.5 hour p.i.): 4.06 ± 1.01 % of the administered dose per gram of tissue net weight
- tissue concentration, kidneys ([1]; 3 hours p.i.): 4.47 ± 1.63 % of the administered dose per gram of tissue net weight
- tissue concentration, kidneys ([1]; 24 hours p.i.): 4.20 ± 0.27 % of the administered dose per gram of tissue net weight
- signal intensity change, tumor and muscle (HT29 colon cancer): only a slight change
- enhancement, HT29 (HT29 colon cancer; 5 min): 116 ± 19
- enhancement, Kidneys (HT29 colon cancer; 5 min): 185 ± 34
- enhancement, Liver (HT29 colon cancer; 5 min): 122 ± 31
- enhancement, Muscle (HT29 colon cancer; 5 min): 119 ± 8
- signal intensity change, liver tissue (HT29 colon cancer; 5 minutes p.i.): marked signal intensity increase
- enhancement, HT29 (HT29 colon cancer; 60 min): 128 ± 21
- enhancement, Kidneys (HT29 colon cancer; 60 min): 240 ± 26
- enhancement, Liver (HT29 colon cancer; 60 min): 164 ± 22
- enhancement, Muscle (HT29 colon cancer; 60 min): 129 ± 7
- enhancement, HT29 (HT29 colon cancer; 90 min): 148 ± 22
- enhancement, Kidneys (HT29 colon cancer; 90 min): 248 ± 18
- enhancement, Liver (HT29 colon cancer; 90 min): 202 ± 37
- enhancement, Muscle (HT29 colon cancer; 90 min): 143 ± 21
- enhancement, HT29 (HT29 colon cancer; 120 min): 155 ± 30
- enhancement, Kidneys (HT29 colon cancer; 120 min): 246 ± 6
- enhancement, Liver (HT29 colon cancer; 120 min): 194 ± 33
- enhancement, Muscle (HT29 colon cancer; 120 min): 147 ± 17
- enhancement, HT29 (HT29 colon cancer; 150 min): 167 ± 29
- enhancement, Kidneys (HT29 colon cancer; 150 min): 225 ± 12
- enhancement, Liver (HT29 colon cancer; 150 min): 197 ± 17
- enhancement, Muscle (HT29 colon cancer; 150 min): 146 ± 8
- enhancement, HT29 (HT29 colon cancer; 180 min): 161 ± 22
- enhancement, Kidneys (HT29 colon cancer; 180 min): 212 ± 16
- enhancement, Liver (HT29 colon cancer; 180 min): 212 ± 9
- enhancement, Muscle (HT29 colon cancer; 180 min): 157 ± 8
- enhancement, implanted tumor (VX-2 carcinoma; [2]): good long acting enhancement
- enhancement, majority of the lymph nodes on the tumor-bearing side (VX-2 carcinoma; [2]): good long acting enhancement
- diagnosis of metastasis of the lymph nodes (VX-2 carcinoma; confirmed by histological study): a metastasis attack of the lymph nodes could therefore be diagnosed
